Like-named read-outs stand apart in the source and are kept apart here.
Assays:
[1] = Analgetic effect (acetic acid writhing syndrome); format: in vivo, dd-strain male mice; details: Mus musculus, ip, mice
[2] = Anti-inflammatory effect (carrageenin edema of hind paw); format: in vivo, Wistar-strain male rats; details: Rattus norvegicus, po, orally, rats, 3 hours, read-out: anti-inflammatory effect (inhibition percentage of carrageenin edema)
Method: 2. Anti-inflammatory effect
A group of five Wistar-strain male rats (100-150 g) were orally administered with each test compound suspended in 0.5 % tragacanth-saline solution. After 30 minutes 0.5 %-1.0 % carrageenin suspended in the water for injection was injected subcutaneously to a hind paw. After 3 hours the carrageenin edema was measured by volume and the inhibition percentage was determined with respect to the results for the control animals. The inhibition percentages were shown with the notations as follows: […]

[3] = tested on: dd-strain male mice; details: 72 hours
Method: The lethal dose was estimated from the death of animals 72 hours after administration.

[4] = Analgetic effect (acetic acid writhing syndrome); format: in vivo, dd-strain male mice; details: Mus musculus, po; orally, mice, acetic acid writhing
Method: Each test compound suspended in 0.5 % tragacanth-saline solution was orally administered to dd-strain male mice (18-20 g). After one hour 0.6% acetic acid solution was intraperitoneally injected in a volume of 0.1 ml/10 g.

SMILES	ED50 [1] [mg/kg]	inhibition in vivo at 10 mg/kg [2] [%]	inhibition in vivo at 50 mg/kg [2] [%]	acute toxicity (lethal dose) ([3]; i.p.) [mg/kg]	inhibition in vivo at 20 mg/kg [2] [%]	inhibition in vivo at 100 mg/kg ([2]; dose 100 mg/kg) [%]	acute toxicity (lethal dose) ([3]; p.o.) [mg/kg]	ED50 [4] [mg/kg]
Cc1c(N(C)C)c(=O)n(-c2ccccc2)n1C [aminopyrine, reference compound]	56	< 15	< 15	100 to 300	–	–	–	–
O=c1c2cccnc2n(-c2cccc([N+](=O)[O-])c2)c(=O)n1CCF [Compound 15]	–	> 61	> 61	–	46 to 60	46 to 60	2000	~0.01
O=C(O)Cn1c(=O)c2cccnc2n(-c2cccc([N+](=O)[O-])c2)c1=O [Compound 26]	–	–	31 to 45	> 1000	16 to 30	–	> 2000	33
O=C(O)c1ccccc1Nc1cccc(C(F)(F)F)c1 [flufenamic acid, reference compound]	–	< 15	16 to 30	300 to 1000	–	–	–	180

Reference: patent US3984415A, “1-Nitrophenylpyrido [2,3-d] pyrimidine-2,4(1H,3H)-diones” (Hisamitsu Pharmaceutical Co., Inc., priority 1973, dated 1976)
